Read-outs that look alike come from different tables or passages of the source.
Legend:
P. aeruginosa = experiment: MIC by serial two-fold agar dilution (Mueller-Hinton agar), P. aeruginosa, primary screening; format: cell-based
Protocol: (§1) Minimum inhibitory concentrations (MIC) of BB-S520 were determined by serial two-fold agar dilution method using Steers' apparatus on Meuller-Hinton agar plate against 31 test organisms for the primary screening and also against 61 strains of Pseudomonas aeruginosa for the secondary evaluation. The results are shown in Table 1 and Table 2 along with those of BB-S514 and sulbenicillin.
(§2) Minimum inhibitory concentrations (MIC) of cephalosporins in the present study were determined by serial two-fold agar dilution method using Steers' apparatus on Mueller-Hinton agar plate against 31 test organisms for the primary screening and also against 61 strains of Pseudomonas aeruginosa for the secondary evaluation.

P. vulgaris = experiment: MIC by serial two-fold agar dilution (Mueller-Hinton agar), P. vulgaris; format: cell-based
Protocol: as §1, §2

E. coli Juhl = experiment: Median curative dose in mice, infection with E. coli Juhl; format: in vivo; details: Escherichia coli, sc
Source text: (§3) Median Curative Dose in Mgm./Kg.
(§4) Upon Subcutaneous Injection in Mice

S. aureus Smith = experiment: Median curative dose in mice, infection with S. aureus Smith; format: in vivo; details: Staphylococcus aureus, sc; subcutaneous injection in mice, S. aureus Smith, Table 4; read-out: Median Curative Dose (PD50)
Source text: as §3, §4

P. mirabilis = experiment: MIC by serial two-fold agar dilution (Mueller-Hinton agar), P. mirabilis; format: cell-based
Protocol: as §1, §2

Klebsiella sp. = experiment: MIC by serial two-fold agar dilution (Mueller-Hinton agar), Klebsiella sp.; format: cell-based
Protocol: as §1, §2

Pseudomonas aeruginosa = experiment: MIC by agar dilution against 61 strains of Pseudomonas aeruginosa, secondary evaluation; format: cell-based
Protocol: as §1, §2

CC1(C)S[C@@H]2[C@H](NC(=O)C(c3ccccc3)S(=O)(=O)O)C(=O)N2[C@H]1C(=O)O (some centres unmarked) [Sulbenicillin, sulbenicillin]
8.5 mg/kg: ED50 (E. coli Juhl; mice, E. coli Juhl infection, Table 5, read-out: PD50)
100 µg/mL: MIC (P. aeruginosa; Pseudomonas aeruginosa, P. aeruginosa (4th line), Table 1, read-out: MIC) | MIC (P. aeruginosa; Pseudomonas aeruginosa, P. aeruginosa A20717, Table 6, read-out: MIC) | MIC (Pseudomonas aeruginosa; Pseudomonas aeruginosa, BBRI Pa-No. 6, No. 5, Table 7, read-out: MIC) | MIC (Pseudomonas aeruginosa; Pseudomonas aeruginosa, BBRI Pa-No. 15, Table 2, read-out: MIC) | MIC (Pseudomonas aeruginosa; Pseudomonas aeruginosa, BBRI Pa-No. 24, Table 2, read-out: MIC)
2.4 mg/kg: ED50 (S. aureus Smith)
> 100 µg/mL: MIC (Pseudomonas aeruginosa; Pseudomonas aeruginosa, BBRI Pa-No. 6, No. 5, Table 2, read-out: MIC) | MIC (Pseudomonas aeruginosa; Pseudomonas aeruginosa, BBRI Pa-No. 10, Table 2, read-out: MIC) | MIC (Pseudomonas aeruginosa; Pseudomonas aeruginosa, BBRI Pa-No. 10, Table 7, read-out: MIC) | MIC (Pseudomonas aeruginosa; Pseudomonas aeruginosa, BBRI Pa-No. 24, Table 7, read-out: MIC)
12.5 µg/mL: MIC (P. aeruginosa; P. aeruginosa A15150, Table 6) | MIC (P. aeruginosa; P. aeruginosa A20229, Table 6) | MIC (P. aeruginosa; Pseudomonas aeruginosa) | MIC (Klebsiella sp.; Klebsiella) | MIC (Klebsiella sp.; Klebsiella sp. A20452, Table 6) | MIC (Pseudomonas aeruginosa; BBRI Pa-No. 1, D15, Table 7) | MIC (Pseudomonas aeruginosa; BBRI Pa-No. 3, 1449VA, Table 7) | MIC (Pseudomonas aeruginosa; BBRI Pa-No. 4, H9 D113, Table 7) | MIC (Pseudomonas aeruginosa; BBRI Pa-No. 9, Yale, Table 7) | MIC (Pseudomonas aeruginosa; BBRI Pa-No. 14, Table 7) | MIC (Pseudomonas aeruginosa; BBRI Pa-No. 17, H6 D114, Table 2) | MIC (Pseudomonas aeruginosa; BBRI Pa-No. 18, H8 D121, Table 2) | MIC (Pseudomonas aeruginosa; BBRI Pa-No. 19, Table 2) | MIC (Pseudomonas aeruginosa; BBRI Pa-No. 25, Table 2) | MIC (Pseudomonas aeruginosa; BBRI Pa-No. 26, Ps32, Table 2) | MIC (Pseudomonas aeruginosa; BBRI Pa-No. 26, Ps32, Table 7) | MIC (Pseudomonas aeruginosa; BBRI Pa-No. 31, Table 2) | MIC (Pseudomonas aeruginosa; BBRI Pa-No. 34, Table 7) | MIC (Pseudomonas aeruginosa; BBRI Pa-No. 60, Table 2) | MIC (Pseudomonas aeruginosa; BBRI Pa-No. 60, Table 7) | MIC (Pseudomonas aeruginosa; Pseudomonas aeruginosa)
6.3 µg/mL: MIC (Pseudomonas aeruginosa; Pseudomonas aeruginosa, BBRI Pa-No. 3, 1449VA, Table 2, read-out: MIC) | MIC (Pseudomonas aeruginosa; Pseudomonas aeruginosa, BBRI Pa-No. 5, N4865KC, Table 7, read-out: MIC) | MIC (Pseudomonas aeruginosa; Pseudomonas aeruginosa, BBRI Pa-No. 16, No. 130, Table 2, read-out: MIC) | MIC (Pseudomonas aeruginosa; Pseudomonas aeruginosa, BBRI Pa-No. 19, Table 7, read-out: MIC) | MIC (Pseudomonas aeruginosa; Pseudomonas aeruginosa, BBRI Pa-No. 25, Table 7, read-out: MIC)
9.5 mg/kg: ED50 (E. coli Juhl; subcutaneous injection in mice, E. coli Juhl, Table 4, read-out: Median Curative Dose (PD50))
25 µg/mL: MIC (P. aeruginosa; Pseudomonas aeruginosa, P. aeruginosa (2nd line), Table 1, read-out: MIC) | MIC (P. aeruginosa; Pseudomonas aeruginosa, P. aeruginosa (3rd line), Table 1, read-out: MIC) | MIC (P. aeruginosa; Pseudomonas aeruginosa, P. aeruginosa A9843, Table 6, read-out: MIC) | MIC (P. aeruginosa; Pseudomonas aeruginosa, P. aeruginosa A9930, Table 6, read-out: MIC) | MIC (Pseudomonas aeruginosa; Pseudomonas aeruginosa, BBRI Pa-No. 1, D15, Table 2, read-out: MIC) | MIC (Pseudomonas aeruginosa; Pseudomonas aeruginosa, BBRI Pa-No. 2, VA, Table 7, read-out: MIC) | MIC (Pseudomonas aeruginosa; Pseudomonas aeruginosa, BBRI Pa-No. 4, H9 D113, Table 2, read-out: MIC) | MIC (Pseudomonas aeruginosa; Pseudomonas aeruginosa, BBRI Pa-No. 5, M4865KC, Table 2, read-out: MIC) | MIC (Pseudomonas aeruginosa; Pseudomonas aeruginosa, BBRI Pa-No. 7, Table 2, read-out: MIC) | MIC (Pseudomonas aeruginosa; Pseudomonas aeruginosa, BBRI Pa-No. 7, Table 7, read-out: MIC) | MIC (Pseudomonas aeruginosa; Pseudomonas aeruginosa, BBRI Pa-No. 8, Table 2, read-out: MIC) | MIC (Pseudomonas aeruginosa; Pseudomonas aeruginosa, BBRI Pa-No. 8, Table 7, read-out: MIC) | MIC (Pseudomonas aeruginosa; Pseudomonas aeruginosa, BBRI Pa-No. 9, Yale, Table 2, read-out: MIC) | MIC (Pseudomonas aeruginosa; Pseudomonas aeruginosa, BBRI Pa-No. 11, Table 2, read-out: MIC) | MIC (Pseudomonas aeruginosa; Pseudomonas aeruginosa, BBRI Pa-No. 11, Table 7, read-out: MIC) | MIC (Pseudomonas aeruginosa; Pseudomonas aeruginosa, BBRI Pa-No. 12, Table 7, read-out: MIC) | MIC (Pseudomonas aeruginosa; Pseudomonas aeruginosa, BBRI Pa-No. 14, Table 2, read-out: MIC) | MIC (Pseudomonas aeruginosa; Pseudomonas aeruginosa, BBRI Pa-No. 17, H6 D114, Table 7, read-out: MIC) | MIC (Pseudomonas aeruginosa; Pseudomonas aeruginosa, BBRI Pa-No. 20, Table 2, read-out: MIC) | MIC (Pseudomonas aeruginosa; Pseudomonas aeruginosa, BBRI Pa-No. 20, Table 7, read-out: MIC) | MIC (Pseudomonas aeruginosa; Pseudomonas aeruginosa, BBRI Pa-No. 21, Table 2, read-out: MIC) | MIC (Pseudomonas aeruginosa; Pseudomonas aeruginosa, BBRI Pa-No. 21, Table 7, read-out: MIC) | MIC (Pseudomonas aeruginosa; Pseudomonas aeruginosa, BBRI Pa-No. 23, Table 7, read-out: MIC) | MIC (Pseudomonas aeruginosa; Pseudomonas aeruginosa, BBRI Pa-No. 29, D122, Table 2, read-out: MIC) | MIC (Pseudomonas aeruginosa; Pseudomonas aeruginosa, BBRI Pa-No. 29, D122, Table 7, read-out: MIC)
50 µg/mL: MIC (Pseudomonas aeruginosa; Pseudomonas aeruginosa, BBRI Pa-No. 12, Table 2, read-out: MIC) | MIC (Pseudomonas aeruginosa; Pseudomonas aeruginosa, BBRI Pa-No. 15, Table 7, read-out: MIC) | MIC (Pseudomonas aeruginosa; Pseudomonas aeruginosa, BBRI Pa-No. 23, Table 2, read-out: MIC) | MIC (Pseudomonas aeruginosa; Pseudomonas aeruginosa, BBRI Pa-No. 28, CPH1C527/72, Table 7, read-out: MIC) | MIC (Pseudomonas aeruginosa; Pseudomonas aeruginosa, BBRI Pa-No. 28, CPH10527/72, Table 2, read-out: MIC)
0.8 µg/mL: MIC (P. mirabilis; P. mirabilis A9900, Table 6) | MIC (P. mirabilis; Proteus mirabilis, P. mirabilis, Table 1, read-out: MIC)
3.1 µg/mL: MIC (P. aeruginosa; Pseudomonas aeruginosa, P. aeruginosa (6th line), Table 1, read-out: MIC) | MIC (P. vulgaris; P. vulgaris A9539, Table 6) | MIC (P. vulgaris; Proteus vulgaris, P. vulgaris, Table 1, read-out: MIC) | MIC (Pseudomonas aeruginosa; Pseudomonas aeruginosa, BBRI Pa-No. 16, No. 130, Table 7, read-out: MIC) | MIC (Pseudomonas aeruginosa; Pseudomonas aeruginosa, BBRI Pa-No. 18, H8 D121, Table 7, read-out: MIC)
12.5 Mcg./Ml.: MIC (P. aeruginosa; P. aeruginosa (5th line), Table 1)
24 µg/mL: MIC (Pseudomonas aeruginosa; Pseudomonas aeruginosa, 61 strains of Pseudomonas aeruginosa, Table 7, read-out: Geometric Mean of MIC)
